Here are results for one molecule from patent US20080234323A1, “Amorphous and Three Crystalline Forms of Rimonabant Hydrochloride” (priority 2005, published 2008).

The data set in a line: Solubility of different forms of Rimonabant hydrochloride in solvents. The format is physicochemical. Particulars: at R.T. The text has this:
• All the forms were soluble in alcohols such as methanol, ethanol etc.

Regarding `Cc1c(C(=O)NN2CCCCC2)nn(-c2ccc(Cl)cc2Cl)c1-c1ccc(Cl)cc1` [Form II, 5-(4-chlorophenyl)-1-(2,4-dichlorophenyl)-4-methyl-N-(piperidin-1-yl)pyrazole-3-carboxamide], the solubility in acetone entry is on record as “partly soluble” and the solubility in acetonitrile result is reported as “partly soluble”.
